Results taken from article PMC7265341, “Quantifying CDK inhibitor selectivity in live cells” (Nature Communications, 2020).
Read-outs that look alike come from different tables or passages of the source.

Legend:
CDK5/CDK5R1 = CDK5/CDK5R1 (Homo sapiens, UniProt Q00535); assay: NanoBRET live-cell target engagement, CDK5-NanoLuc/CDK5R1 in HEK-293; assay type: binding; settings: 10µM
CDK6/Cyclin D1 = CDK6/Cyclin D1 (Homo sapiens, UniProt Q00534); assay: NanoBRET live-cell target engagement, NanoLuc-CDK6/Cyclin D1 in HEK-293; assay type: binding; settings: 10µM
CDK17/Cyclin Y = CDK17/Cyclin Y (Homo sapiens, UniProt Q00537); assay: NanoBRET live-cell target engagement, CDK17-NanoLuc/Cyclin Y in HEK-293; assay type: binding; settings: 10µM
CDK12/Cyclin K = CDK12/Cyclin K (Homo sapiens, UniProt Q9NYV4); assay: NanoBRET live-cell target engagement, CDK12-NanoLuc/Cyclin K in HEK-293; assay type: binding
CDK13/Cyclin K = CDK13/Cyclin K (Homo sapiens, UniProt Q14004); assay: NanoBRET live-cell target engagement, CDK13-NanoLuc/Cyclin K in HEK-293; assay type: binding
CDK13/Cyclin K, sequence (O75909 whole entry): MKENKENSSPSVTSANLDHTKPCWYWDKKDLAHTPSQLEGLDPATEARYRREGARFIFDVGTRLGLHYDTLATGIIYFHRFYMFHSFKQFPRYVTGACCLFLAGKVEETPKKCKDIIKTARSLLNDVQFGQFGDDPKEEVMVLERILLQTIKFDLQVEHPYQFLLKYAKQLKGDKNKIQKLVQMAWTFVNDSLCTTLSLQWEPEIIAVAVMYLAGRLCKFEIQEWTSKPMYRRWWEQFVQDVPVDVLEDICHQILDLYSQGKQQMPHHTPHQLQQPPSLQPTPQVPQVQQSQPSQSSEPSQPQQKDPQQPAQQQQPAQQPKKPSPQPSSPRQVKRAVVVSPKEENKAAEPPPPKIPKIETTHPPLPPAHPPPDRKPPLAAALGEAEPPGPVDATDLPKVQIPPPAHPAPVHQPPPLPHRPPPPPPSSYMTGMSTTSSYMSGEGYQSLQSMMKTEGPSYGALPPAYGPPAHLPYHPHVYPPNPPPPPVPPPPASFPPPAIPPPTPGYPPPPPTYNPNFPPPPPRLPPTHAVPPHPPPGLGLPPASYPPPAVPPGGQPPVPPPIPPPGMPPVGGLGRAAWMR
CDK13/Cyclin K, sequence (Q14004 other isoform, or with tags, fused parts or gaps): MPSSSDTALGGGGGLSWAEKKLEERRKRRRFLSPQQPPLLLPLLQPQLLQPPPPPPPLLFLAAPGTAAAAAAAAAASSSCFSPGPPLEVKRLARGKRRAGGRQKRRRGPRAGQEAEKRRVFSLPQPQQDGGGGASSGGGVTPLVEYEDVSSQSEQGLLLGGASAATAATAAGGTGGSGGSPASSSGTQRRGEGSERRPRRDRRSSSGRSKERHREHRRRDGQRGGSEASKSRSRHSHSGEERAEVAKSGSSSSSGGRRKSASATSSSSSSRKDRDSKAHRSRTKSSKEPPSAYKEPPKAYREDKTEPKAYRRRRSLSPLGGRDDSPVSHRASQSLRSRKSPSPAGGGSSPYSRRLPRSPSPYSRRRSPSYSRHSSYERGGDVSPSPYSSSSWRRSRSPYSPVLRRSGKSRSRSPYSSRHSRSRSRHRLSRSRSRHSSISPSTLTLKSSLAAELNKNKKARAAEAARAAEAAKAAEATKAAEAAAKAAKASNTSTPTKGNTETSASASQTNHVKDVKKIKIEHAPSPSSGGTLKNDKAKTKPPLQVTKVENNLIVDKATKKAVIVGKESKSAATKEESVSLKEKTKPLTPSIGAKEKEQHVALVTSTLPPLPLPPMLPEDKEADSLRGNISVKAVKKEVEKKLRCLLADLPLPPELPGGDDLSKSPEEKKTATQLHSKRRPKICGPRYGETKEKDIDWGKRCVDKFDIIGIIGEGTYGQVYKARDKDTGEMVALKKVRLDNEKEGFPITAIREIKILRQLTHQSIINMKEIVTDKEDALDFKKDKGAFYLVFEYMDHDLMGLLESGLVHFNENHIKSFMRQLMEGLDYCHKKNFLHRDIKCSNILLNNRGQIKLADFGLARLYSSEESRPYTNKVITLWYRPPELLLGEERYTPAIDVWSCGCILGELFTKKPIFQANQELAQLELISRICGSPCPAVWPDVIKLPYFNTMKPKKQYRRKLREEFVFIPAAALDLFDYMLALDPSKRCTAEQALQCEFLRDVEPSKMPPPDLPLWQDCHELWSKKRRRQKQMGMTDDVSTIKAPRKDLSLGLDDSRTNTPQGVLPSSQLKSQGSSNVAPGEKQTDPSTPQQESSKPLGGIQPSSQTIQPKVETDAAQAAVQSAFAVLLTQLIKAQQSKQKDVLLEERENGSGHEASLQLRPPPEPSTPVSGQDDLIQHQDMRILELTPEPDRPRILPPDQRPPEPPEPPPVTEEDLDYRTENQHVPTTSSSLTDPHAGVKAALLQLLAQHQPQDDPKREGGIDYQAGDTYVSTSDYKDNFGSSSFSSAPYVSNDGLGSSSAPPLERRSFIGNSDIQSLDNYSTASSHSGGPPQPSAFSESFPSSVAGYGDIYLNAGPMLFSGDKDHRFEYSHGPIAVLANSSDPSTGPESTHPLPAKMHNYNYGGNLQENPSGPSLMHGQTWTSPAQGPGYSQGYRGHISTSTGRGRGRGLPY

CDK15/Cyclin Y = CDK15/Cyclin Y (Homo sapiens, UniProt Q96Q40); assay: NanoBRET live-cell target engagement, NanoLuc-CDK15/Cyclin Y in HEK-293; assay type: binding; settings: 10µM
CDK15/Cyclin Y, sequence (Q96Q40 whole entry): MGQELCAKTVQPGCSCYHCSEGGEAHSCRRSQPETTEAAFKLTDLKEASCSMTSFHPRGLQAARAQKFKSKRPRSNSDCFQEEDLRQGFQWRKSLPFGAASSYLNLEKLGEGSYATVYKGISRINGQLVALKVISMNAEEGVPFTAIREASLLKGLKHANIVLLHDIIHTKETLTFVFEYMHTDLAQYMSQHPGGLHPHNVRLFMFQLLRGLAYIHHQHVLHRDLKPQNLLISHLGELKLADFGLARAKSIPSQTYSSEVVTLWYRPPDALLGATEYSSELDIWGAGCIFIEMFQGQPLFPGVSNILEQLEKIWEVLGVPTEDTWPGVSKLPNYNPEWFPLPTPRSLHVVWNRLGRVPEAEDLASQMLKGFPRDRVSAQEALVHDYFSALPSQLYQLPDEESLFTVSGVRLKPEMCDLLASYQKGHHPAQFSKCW
CDK15/Cyclin Y, sequence (Q8ND76 whole entry partner): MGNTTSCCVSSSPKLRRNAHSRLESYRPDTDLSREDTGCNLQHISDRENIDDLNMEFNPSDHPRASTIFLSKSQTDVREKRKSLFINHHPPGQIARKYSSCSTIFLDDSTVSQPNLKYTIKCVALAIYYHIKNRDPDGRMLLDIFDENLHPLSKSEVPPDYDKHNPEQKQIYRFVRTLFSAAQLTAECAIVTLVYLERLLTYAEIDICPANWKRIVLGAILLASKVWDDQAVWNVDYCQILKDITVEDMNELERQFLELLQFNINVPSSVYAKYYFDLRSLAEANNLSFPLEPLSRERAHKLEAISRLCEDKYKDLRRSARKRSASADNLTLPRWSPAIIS

CDK7 = CDK7 (Homo sapiens, UniProt P50613); assay: NanoBRET live-cell target engagement, NanoLuc-CDK7 in HEK-293; assay type: binding; settings: 10µM
CDK9/Cyclin K = CDK9/Cyclin K (Homo sapiens, UniProt P50750); assay: NanoBRET live-cell target engagement, NanoLuc-CDK9/Cyclin K in HEK-293; assay type: binding; settings: 10µM
CDK14/Cyclin Y = CDK14/Cyclin Y (Homo sapiens, UniProt O94921); assay: NanoBRET live-cell target engagement, CDK14-NanoLuc/Cyclin Y in HEK-293; assay type: binding; settings: 10µM
CDK14/Cyclin Y, sequence (O94921 whole entry): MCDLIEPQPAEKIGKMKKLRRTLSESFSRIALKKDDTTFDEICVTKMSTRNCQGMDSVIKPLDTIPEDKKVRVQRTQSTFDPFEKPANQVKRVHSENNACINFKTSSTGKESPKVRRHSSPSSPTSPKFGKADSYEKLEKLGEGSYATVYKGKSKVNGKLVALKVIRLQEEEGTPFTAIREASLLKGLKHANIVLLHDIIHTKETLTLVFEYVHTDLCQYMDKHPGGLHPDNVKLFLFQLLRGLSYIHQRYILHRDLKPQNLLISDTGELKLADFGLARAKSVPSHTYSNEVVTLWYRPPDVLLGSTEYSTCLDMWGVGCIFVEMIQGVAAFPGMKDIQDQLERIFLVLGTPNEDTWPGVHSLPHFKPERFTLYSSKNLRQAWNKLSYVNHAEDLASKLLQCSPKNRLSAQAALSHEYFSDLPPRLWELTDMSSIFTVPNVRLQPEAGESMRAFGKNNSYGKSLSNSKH
CDK14/Cyclin Y, sequence (Q8ND76 whole entry partner): as the sequence (Q8ND76 whole entry partner) above

CDK8/Cyclin C = CDK8/Cyclin C (Homo sapiens, UniProt P49336); assay: NanoBRET live-cell target engagement, NanoLuc-CDK8/Cyclin C in HEK-293; assay type: binding; settings: 10µM
CDK2/Cyclin E1 = CDK2/Cyclin E1 (Homo sapiens, UniProt P24941); assay: NanoBRET live-cell target engagement, CDK2-NanoLuc/Cyclin E1 in HEK-293; assay type: binding; settings: 10µM
CDK3/Cyclin E1 = CDK3/Cyclin E1 (Homo sapiens, UniProt Q00526); assay: NanoBRET live-cell target engagement, CDK3-NanoLuc/Cyclin E1 in HEK-293; assay type: binding; settings: 10µM
CDK3/Cyclin E1, sequence (Q00526 whole entry): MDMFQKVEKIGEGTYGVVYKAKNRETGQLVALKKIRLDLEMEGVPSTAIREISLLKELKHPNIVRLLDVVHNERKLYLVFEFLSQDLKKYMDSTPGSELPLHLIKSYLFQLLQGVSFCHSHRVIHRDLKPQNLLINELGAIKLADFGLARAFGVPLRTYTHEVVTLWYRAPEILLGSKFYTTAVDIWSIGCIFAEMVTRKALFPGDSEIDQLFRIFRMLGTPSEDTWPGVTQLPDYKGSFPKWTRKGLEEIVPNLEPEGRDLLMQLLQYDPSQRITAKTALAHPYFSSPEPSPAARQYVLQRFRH
CDK3/Cyclin E1, sequence (P24864 whole entry partner): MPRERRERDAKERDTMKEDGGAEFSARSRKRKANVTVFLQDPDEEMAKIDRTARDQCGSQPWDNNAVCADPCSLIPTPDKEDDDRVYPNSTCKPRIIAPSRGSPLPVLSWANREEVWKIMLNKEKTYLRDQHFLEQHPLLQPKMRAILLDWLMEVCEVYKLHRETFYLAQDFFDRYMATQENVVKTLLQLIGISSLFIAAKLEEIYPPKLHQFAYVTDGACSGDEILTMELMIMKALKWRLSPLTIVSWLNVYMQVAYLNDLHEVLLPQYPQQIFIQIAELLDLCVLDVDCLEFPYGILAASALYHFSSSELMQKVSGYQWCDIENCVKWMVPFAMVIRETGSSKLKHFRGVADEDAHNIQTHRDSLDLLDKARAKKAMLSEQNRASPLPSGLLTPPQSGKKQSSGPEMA

CDK1/Cyclin E1 = CDK1/Cyclin E1 (Homo sapiens, UniProt P06493); assay: NanoBRET live-cell target engagement, CDK1-NanoLuc/Cyclin E1 in HEK-293; assay type: binding; settings: 10µM
CDK1/Cyclin E1, sequence (P06493 whole entry): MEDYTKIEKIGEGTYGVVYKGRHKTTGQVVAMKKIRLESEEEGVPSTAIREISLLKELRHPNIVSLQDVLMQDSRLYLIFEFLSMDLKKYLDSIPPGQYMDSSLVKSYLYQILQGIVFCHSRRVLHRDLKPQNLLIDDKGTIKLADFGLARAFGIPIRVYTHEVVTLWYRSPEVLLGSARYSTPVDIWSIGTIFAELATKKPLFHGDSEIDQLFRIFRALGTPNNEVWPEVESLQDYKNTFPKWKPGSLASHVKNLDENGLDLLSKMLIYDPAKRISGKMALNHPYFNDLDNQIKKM
CDK1/Cyclin E1, sequence (P24864 whole entry partner): as the sequence (P24864 whole entry partner) above

CDK11B/Cyclin L2 = CDK11B/Cyclin L2 (Homo sapiens, UniProt P21127); assay: NanoBRET live-cell target engagement, CDK11B-NanoLuc/Cyclin L2 in HEK-293; assay type: binding; settings: 10µM
CDK20/Cyclin H = CDK20/Cyclin H (Homo sapiens, UniProt Q8IZL9); assay: NanoBRET live-cell target engagement, NanoLuc-CDK20/Cyclin H in HEK-293; assay type: binding; settings: 10µM
CDK16/Cyclin Y = CDK16/Cyclin Y (Homo sapiens, UniProt Q00536); assay: NanoBRET live-cell target engagement, CDK16-NanoLuc/Cyclin Y in HEK-293; assay type: binding; settings: 10µM
CDK19/Cyclin C = CDK19/Cyclin C (Homo sapiens, UniProt Q9BWU1); assay: NanoBRET live-cell target engagement, NanoLuc-CDK19/Cyclin C in HEK-293; settings: 10µM
CDK4/Cyclin D1 = CDK4/Cyclin D1 (Homo sapiens, UniProt P11802); assay: NanoBRET live-cell target engagement, NanoLuc-CDK4/Cyclin D1 in HEK-293; assay type: binding; settings: 10µM
CDK10/Cyclin L2 = CDK10/Cyclin L2 (Homo sapiens, UniProt Q15131); assay: NanoBRET live-cell target engagement, CDK10-NanoLuc/Cyclin L2 in HEK-293; settings: for IC50: read-out: CDK10/L2 IC50
CDK18/Cyclin Y = CDK18/Cyclin Y (Homo sapiens, UniProt Q07002); assay: NanoBRET live-cell target engagement, CDK18-NanoLuc/Cyclin Y in HEK-293; assay type: binding; settings: 10µM
CDK18/Cyclin Y, sequence (Q07002 whole entry): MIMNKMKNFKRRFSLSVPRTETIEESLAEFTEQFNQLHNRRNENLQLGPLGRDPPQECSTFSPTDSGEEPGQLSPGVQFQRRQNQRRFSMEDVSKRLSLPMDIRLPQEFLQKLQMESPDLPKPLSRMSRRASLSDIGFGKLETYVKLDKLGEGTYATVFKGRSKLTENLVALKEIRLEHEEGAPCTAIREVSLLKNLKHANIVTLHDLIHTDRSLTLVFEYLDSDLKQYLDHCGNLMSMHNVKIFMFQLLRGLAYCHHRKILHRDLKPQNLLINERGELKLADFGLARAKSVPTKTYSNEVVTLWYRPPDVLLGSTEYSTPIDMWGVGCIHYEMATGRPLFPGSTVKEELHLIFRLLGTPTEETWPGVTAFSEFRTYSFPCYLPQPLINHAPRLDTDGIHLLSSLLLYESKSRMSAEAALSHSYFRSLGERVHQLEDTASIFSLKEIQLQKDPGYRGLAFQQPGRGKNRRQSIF
CDK18/Cyclin Y, sequence (Q8ND76 whole entry partner): as the sequence (Q8ND76 whole entry partner) above

CN(C)C/C=C/C(=O)Nc1ccc(C(=O)Nc2cccc(Nc3ncc(Cl)c(-c4c[nH]c5ccccc45)n3)c2)cc1 [THZ1]
CDK5/CDK5R1 Inhibition at 10µM (%) (CDK5/CDK5R1; average of experiments): 42.5%
CDK5/CDK5R1 Inhibition at 10µM (%) (CDK5/CDK5R1; independent experiment 1): 19.2%
CDK5/CDK5R1 Inhibition at 10µM (%) (CDK5/CDK5R1; independent experiment 2): 65.8%
CDK6/D1 Inhibition at 10µM (%) (CDK6/Cyclin D1; average of experiments): 73.8%
CDK6/D1 Inhibition at 10µM (%) (CDK6/Cyclin D1; independent experiment 1): 53.8%
CDK6/D1 Inhibition at 10µM (%) (CDK6/Cyclin D1; independent experiment 2): 93.8%
CDK17/Y Inhibition at 10µM (%) (CDK17/Cyclin Y; average of experiments): 50.4%
CDK17/Y Inhibition at 10µM (%) (CDK17/Cyclin Y; independent experiment 1): 73.0%
CDK17/Y Inhibition at 10µM (%) (CDK17/Cyclin Y; independent experiment 2): 27.8%
CDK12/K Inhibition at 10µM (%) (CDK12/Cyclin K; average of experiments): 45.5%
CDK12/K Inhibition at 10µM (%) (CDK12/Cyclin K; independent experiment 1): 26.4%
CDK12/K Inhibition at 10µM (%) (CDK12/Cyclin K; independent experiment 2): 64.6%
CDK12 occupancy at 10 µM (CDK12/Cyclin K; primary screen, live HEK-293): ~50%
CDK13/K Inhibition at 10µM (%) (CDK13/Cyclin K; average of experiments): 48.1%
CDK13/K Inhibition at 10µM (%) (CDK13/Cyclin K; independent experiment 1): 34.3%
CDK13/K Inhibition at 10µM (%) (CDK13/Cyclin K; independent experiment 2): 62.0%
CDK13 occupancy at 10 µM (CDK13/Cyclin K; primary screen, live HEK-293): ~50%
CDK15/Y Inhibition at 10µM (%) (CDK15/Cyclin Y; average of experiments): 64.9%
CDK15/Y Inhibition at 10µM (%) (CDK15/Cyclin Y; independent experiment 1): 40.7%
CDK15/Y Inhibition at 10µM (%) (CDK15/Cyclin Y; independent experiment 2): 89.2%
CDK7 Inhibition at 10µM (%) (CDK7; average of experiments): 83.9%
CDK7 Inhibition at 10µM (%) (CDK7; independent experiment 1): 70.6%
CDK7 Inhibition at 10µM (%) (CDK7; independent experiment 2): 97.1%
CDK9/K Inhibition at 10µM (%) (CDK9/Cyclin K; average of experiments): 70.0%
CDK9/K Inhibition at 10µM (%) (CDK9/Cyclin K; independent experiment 1): 44.1%
CDK9/K Inhibition at 10µM (%) (CDK9/Cyclin K; independent experiment 2): 96.0%
CDK14/Y Inhibition at 10µM (%) (CDK14/Cyclin Y; average of experiments): 33.1%
CDK14/Y Inhibition at 10µM (%) (CDK14/Cyclin Y; independent experiment 1): 6.6%
CDK14/Y Inhibition at 10µM (%) (CDK14/Cyclin Y; independent experiment 2): 59.6%
CDK8/C Inhibition at 10µM (%) (CDK8/Cyclin C; average of experiments): 62.9%
CDK8/C Inhibition at 10µM (%) (CDK8/Cyclin C; independent experiment 1): 34.6%
CDK8/C Inhibition at 10µM (%) (CDK8/Cyclin C; independent experiment 2): 91.2%
CDK2/E1 Inhibition at 10µM (%) (CDK2/Cyclin E1; average of experiments): 16.1%
CDK2/E1 Inhibition at 10µM (%) (CDK2/Cyclin E1; independent experiment 1): 27.6%
CDK2/E1 Inhibition at 10µM (%) (CDK2/Cyclin E1; independent experiment 2): 4.6%
CDK3/E1 Inhibition at 10µM (%) (CDK3/Cyclin E1; average of experiments): 55.0%
CDK3/E1 Inhibition at 10µM (%) (CDK3/Cyclin E1; independent experiment 1): 14.7%
CDK3/E1 Inhibition at 10µM (%) (CDK3/Cyclin E1; independent experiment 2): 95.2%
CDK1/E1 Inhibition at 10µM (%) (CDK1/Cyclin E1; average of experiments): 91.9%
CDK1/E1 Inhibition at 10µM (%) (CDK1/Cyclin E1; independent experiment 1): 87.2%
CDK1/E1 Inhibition at 10µM (%) (CDK1/Cyclin E1; independent experiment 2): 96.6%
CDK11b/L2 Inhibition at 10µM (%) (CDK11B/Cyclin L2; average of experiments): 34.5%
CDK11b/L2 Inhibition at 10µM (%) (CDK11B/Cyclin L2; independent experiment 1): 13.3%
CDK11b/L2 Inhibition at 10µM (%) (CDK11B/Cyclin L2; independent experiment 2): 55.7%
CDK20/H Inhibition at 10µM (%) (CDK20/Cyclin H; independent experiment 1): 63.8%
CDK20/H Inhibition at 10µM (%) (CDK20/Cyclin H; independent experiment 2): 90.1%
CDK16/Y Inhibition at 10µM (%) (CDK16/Cyclin Y; independent experiment 1): 74.4%
CDK16/Y Inhibition at 10µM (%) (CDK16/Cyclin Y; independent experiment 2): 11.2%
CDK19/C Inhibition at 10µM (%) (CDK19/Cyclin C; average of experiments): 66.6%
CDK19/C Inhibition at 10µM (%) (CDK19/Cyclin C; independent experiment 1): 44.1%
CDK19/C Inhibition at 10µM (%) (CDK19/Cyclin C; independent experiment 2): 89.1%
CDK4/D1 Inhibition at 10µM (%) (CDK4/Cyclin D1; average of experiments): 53.8%
CDK4/D1 Inhibition at 10µM (%) (CDK4/Cyclin D1; independent experiment 1): 13.3%
CDK4/D1 Inhibition at 10µM (%) (CDK4/Cyclin D1; independent experiment 2): 94.2%
CDK10/L2 Inhibition at 10µM (%) (CDK10/Cyclin L2; average of experiments): 48.0%
CDK10/L2 Inhibition at 10µM (%) (CDK10/Cyclin L2; independent experiment 1): 11.4%
CDK10/L2 Inhibition at 10µM (%) (CDK10/Cyclin L2; independent experiment 2): 84.6%
IC50 (CDK10/Cyclin L2; average (± SEM where n=3)): 1000 ± 300 nM
IC50 (CDK10/Cyclin L2; independent experiment 1): 660 nM
IC50 (CDK10/Cyclin L2; independent experiment 2): 790 nM
IC50 (CDK10/Cyclin L2; independent experiment 3): 1500 nM
CDK18/Y Inhibition at 10µM (%) (CDK18/Cyclin Y; average of experiments): 48.6%
CDK18/Y Inhibition at 10µM (%) (CDK18/Cyclin Y; independent experiment 1): 73.0%
CDK18/Y Inhibition at 10µM (%) (CDK18/Cyclin Y; independent experiment 2): 24.3%
